# Source: article PMC12957798, “Adaptation of plateau frog peptide: From antimicrobial to angiogenic and proliferative functions” (Journal of Advanced Research, 2025)
# How the values were obtained:
# p-ERK/ERK = assay: Western blot p-ERK/ERK in HaCaT; format: cell-based, Human; settings: VEGF, n = 3
# Protocol: (§1) HaCaT was inoculated in 12-well plates (2 × 10^5 cells/well) and cultured for 24 h. Afterwards, HaCaT cells were treated with equal amounts of VEGF, SC17-2, and PBS for 16 h. Cells were washed with PBS, after which the samples were collected and added to 1 mL of RIPA lysate containing protease inhibitors and phosphatase inhibitors and placed on ice for 30 min. Allowed to be after sufficient lysis, the supernatant was centrifuged and collected to determine the protein concentration using a nanodrop, followed by the addition of SDS sampling buffer and heating at 95 °C for 10 min. Samples were loaded and run on a gel block based on the determined sample concentration, and then electrotransferred onto a 0.45 μm PVDF membrane. […] After washing three times with TBST, proteins were visualised and scanned by enhanced chemiluminescence using the ChemiDoc XRS imaging system (Bio-Rad, Hercules, CA, USA).
# BALB/c mice = assay: Mouse full-thickness skin wound healing; format: in vivo; settings: day 13, VEGF 20 ng/mL, 20 μL daily on wound, relative to day 1, mean ± SEM, n = 7
# Protocol: Mice were anaesthetised with sodium pentobarbital 2 % by intraperitoneal injection (0.1 mL/20 g mouse body weight), and after anaesthesia, hair was removed from the back using depilatory cream and power scissors, and circular full-thickness skin wounds of the same diameter were marked and created on the back of each mouse using circular stamps and red sealant. The mouse wounds were then covered and infiltrated daily with 20 μL of different concentrations of SC17-2 or 20 ng/mL VEGF, and an equal volume of saline was used in the control group. The mice were anaesthetised by isoflurane nebulisation (concentration 2 %) every two days and then placed under an optical camera to photograph the effect of the wound area.
# Sodium pentobarbital (2 %) was utilised for the anaesthetisation of mice by intraperitoneal injection (0.1 mL/20 g of mouse body weight). Subsequent to the induction of anaesthesia, the dorsal hair was removed using depilatory creams and electric scissors. Thereafter, circular full skin wounds of the same diameter were marked and created on the back of each mouse using circular stamps and red stencils. Mouse wounds were then covered and infiltrated daily with 20 μL of different concentrations of SC17-2 or 20 ng/mL of VEGF, and an equal volume of saline was used in the control group. Mice were anaesthetised every two days using isoflurane nebulisation followed by anaesthesia (concentration 2 %), after which they were placed under an optical camera to photograph the effect of wound area. After 13 days of treatment, mice were anaesthetised using isoflurane nebulisation followed by injection of an overdose of sodium pentobarbital to euthanise the mice (200 mg/kg). The wounds and their surrounding tissues were then excised for histopathological evaluation (Masson and H&E staining) and analysed by Enface immunofluorescence staining.
# (p-Smad2/3)/(Smad2/3) = assay: Western blot p-Smad2/3 / Smad2/3 in HaCaT; format: cell-based, Human; settings: VEGF, n = 3
# Protocol: as §1
# TGF-β = assay: Western blot TGF-β in HaCaT; format: cell-based, Human; settings: VEGF, n = 3
# Protocol: as §1
# S. aureus ATCC6538 = assay: Broth microdilution MIC, S. aureus; format: cell-based, Staphylococcus aureus; set-up: unit not given beside the values; settings: positive control, 37 °C, 24 h, OD600
# Protocol: (§2) Disk diffusion and broth microdilution tests were selected as the standard method for screening the antimicrobial activity of SC17-2 [58]. The experiments were conducted utilising the disk diffusion test, whereby the following strains were examined: Acinetobacter baumannii (ATCC 19606), Candida auris (ATCC 10231), Pseudomonas aeruginosa (ATCC 27853) and Staphylococcus aureus (ATCC 6538). The concentration of bacterial suspension was then adjusted to 1 × 10^5 CFU/mL with saline, after which it was set aside. Separate plates containing bacterial agar were prepared: MH agar was utilised for the isolation of bacterial samples, while Sartorius agar was employed for the isolation of fungal samples. The suspensions containing the aforementioned microorganisms were then spread on the designated plates at a rate of 1:1000. A sterile filter paper was used to dispense 1 mL of SC17-2 (10 mg/mL), with equal amounts of PBS and Vancomycin/Colistin serving as controls. The plates were then subjected to the appropriate temperature (24 h at 37 °C) and subsequently observed under a camera to ascertain the results. […] At the conclusion of this period, the absorbance was measured using a Microplate Reader (Synergy H1, BioTek, USA) with a wavelength of 600 nm. […]
# [1] = system: Escherichia coli ATCC2771; assay: Broth microdilution MIC, E. coli; format: cell-based; set-up: unit not given beside the values; settings: positive control, 37 °C, 24 h, OD600
# Protocol: as §2
# A. baumannil ATCC1968 = assay: Broth microdilution MIC, A. baumannii; format: cell-based, Acinetobacter baumannii; settings: positive control, 37 °C, 24 h, OD600
# Protocol: as §2
compound,measurement,setting,value
VEGF,ERK phosphorylation,p-ERK/ERK,significantly increased ERK phosphorylation
same,wound area,BALB/c mice,7.04 ± 1.43%
same,Smad2/3 phosphorylation,(p-Smad2/3)/(Smad2/3),significantly increased Smad2/3 phosphorylation
same,expression of TGF-β,TGF-β,significantly increase the expression of TGF-β
Colistin,MIC,S. aureus ATCC6538,0.78
same,MIC,[1],0.78
CN[C@H](CC(C)C)C(=O)N[C@H]1C(=O)N[C@@H](CC(N)=O)C(=O)N[C@H]2C(=O)N[C@H]3C(=O)N[C@H](C(=O)N[C@H](C(=O)O)c4cc(O)cc(O)c4-c4cc3ccc4O)[C@H](O)c3ccc(c(Cl)c3)Oc3cc2cc(c3O[C@@H]2O[C@H](CO)[C@@H](O)[C@H](O)[C@H]2O[C@H]2C[C@](C)(N)[C@H](O)[C@H](C)O2)Oc2ccc(cc2Cl)[C@H]1O [Vancomycin],MIC,A. baumannil ATCC1968,0.78
